Data: the NIST ThermoML archive (doi:10.1016/j.jct.2004.09.007)

Test: molar heat capacity at constant pressure; xn = mol fraction of the nth substance listed
Details: 101.3 kPa, Liquid, Large sample (1 g) DSC

CC(O)CCO (stereo not drawn) [1,3-butanediol] + CCCCO
molar heat capacity at constant pressure [J/K/mol]
Details	x1 = 0.189	x1 = 0.2983	x1 = 0.436	x1 = 0.5902	x1 = 0.7056	x1 = 0.8961	x1 = 1
285.15 K	178.21	183.56	189.77	196.24	200.97	210.06	211.74
285.65 K	178.59	183.85	190.08	196.61	201.4	208.67	212.17
288.15 K	179.92	185.21	191.37	198	202.79	210.1	213.57
290.65 K	181.38	186.6	192.85	199.46	204.22	211.53	215.06
293.15 K	182.92	188.08	194.38	200.87	205.67	213	216.58
295.65 K	184.43	189.64	195.81	202.4	207.15	214.51	218.04
298.15 K	186.01	191.11	197.31	203.91	208.58	216.08	219.62
300.65 K	187.6	192.65	198.88	205.47	210.16	217.6	221.14
303.15 K	189.31	194.35	200.51	207.08	211.81	219.24	222.8
305.65 K	191.04	195.99	202.12	208.6	213.36	220.73	224.37
308.15 K	192.78	197.71	203.81	210.26	215.04	222.49	226.07
310.65 K	194.41	199.34	205.42	211.86	216.58	224.04	227.65
313.15 K	196.3	201.02	207.06	213.43	218.21	225.64	229.24
315.65 K	198.07	202.81	208.71	215.01	219.75	227.18	230.82
318.15 K	199.98	204.63	210.53	216.77	221.57	228.97	232.6
320.65 K	201.89	206.47	212.31	218.48	223.19	230.61	234.14
323.15 K	203.75	208.15	214.02	220.21	224.86	232.26	235.83
325.65 K	205.57	210.02	215.77	221.9	226.54	233.95	237.52
328.15 K	207.42	211.77	217.34	223.44	228.18	235.52	239.08
330.65 K	209.47	213.61	219.1	225.17	229.9	237.35	240.59
333.15 K	211.36	215.41	220.86	226.84	231.42	238.77	242.28
335.65 K	213.23	217.15	222.54	228.47	232.95	240.35	243.86
338.15 K	215.01	218.85	224.14	229.97	234.44	241.71	245.11
340.65 K	217.62	220.95	226.11	231.92	236.35	243.67	247.19
343.15 K	219.25	222.78	227.81	233.46	237.95	245.19	248.62
345.65 K	221.09	224.51	229.58	235.21	239.85	246.7	250.13
348.15 K	223.12	226.46	231.31	236.83	241.5	248.27	251.66
350.65 K	224.98	228.29	232.97	238.43	242.73	249.77	253.24
353.15 K	227.13	230.3	234.85	240.2	244.5	251.52	254.86
